Some results are limits rather than exact numbers.

One test relates to HT-29. Put plainly: Inhibition of Myc mRNA expression in human HT-29 cells assessed as Myc mRNA level at 5 ug/ml incubated for 48 hrs by RT-PCR method relative to control. It is filed as functional. Also noted: scale not given: the % may be the effect or the level left.
In the case of `COc1cc2c(c(OC)c1OC)-c1ccc(OC)c(=O)cc1[C@@H](NC(=O)CCCC(=O)OCCCCC[C@@H]1CC=CC(=O)O1)CC2`, the Activity was determined as 16%.

As to `COc1cc2c(c(OC)c1OC)-c1ccc(OC)c(=O)cc1[C@@H](NC(=O)CCCCCCCCCCC(=O)OCCCCC[C@@H]1CC=CC(=O)O1)CC2`, the Activity is reported as 5%.

For `COc1cc2c(c(OC)c1OC)-c1ccc(OC)c(=O)cc1[C@@H](NC(=O)CCCC(=O)OCC[C@H](C[C@H](C)C[C@@H]1CC=CC(=O)O1)OC)CC2`, the Activity came to 97%.

Consider `COc1cc2c(c(OC)c1OC)-c1ccc(OC)c(=O)cc1[C@@H](NC(=O)CCCCCCCCCCC(=O)OCC[C@H](C[C@H](O)C[C@@H]1CC=CC(=O)O1)OC)CC2`, for which the Activity is on record as 15%.

In the case of `CO[C@H](CCO)C[C@H](O)C[C@@H]1CC=CC(=O)O1`, the Activity was found to be 111%.

With `COc1cc2c(c(OC)c1OC)-c1ccc(OC)c(=O)cc1[C@@H](NC(C)=O)CC2` [COLCHICINE], the Activity turned out to be 6%.

Consider `C/C=C/C[C@H](C)[C@@H](OC)[C@@H](C)[C@H](O)C[C@H]1OC(=O)C=C[C@H]1CC` [PIRONETIN], for which the Activity was 118%.

The test system of a further test is HT-29. Kind of test: Inhibition of VEGF mRNA expression in human HT-29 cells assessed as VEGF mRNA level at 50 nM incubated for 48 hrs by RT-PCR method relative to control. It is filed as functional. Set-up: scale not given: the % may be the effect or the level left.
Turning to `COc1cc2c(c(OC)c1OC)-c1ccc(OC)c(=O)cc1[C@@H](NC(=O)CCCCCCCCCCC(=O)OCCCCC[C@@H]1CC=CC(=O)O1)CC2`, the Activity is recorded as 36%.

Turning to `COc1cc2c(c(OC)c1OC)-c1ccc(OC)c(=O)cc1[C@@H](NC(=O)CCCCCCCCCCC(=O)OCC[C@H](C[C@H](O)C[C@@H]1CC=CC(=O)O1)OC)CC2`, the Activity was determined as 51%.

Consider `CO[C@H](CCO)C[C@H](O)C[C@@H]1CC=CC(=O)O1`, for which the Activity is listed as 90%.

On to `COc1cc2c(c(OC)c1OC)-c1ccc(OC)c(=O)cc1[C@@H](NC(C)=O)CC2` [COLCHICINE], for which the Activity came to 48%.

A further test has as its system HT-29. Put plainly: Inhibition of hTERT mRNA expression in human HT-29 cells assessed as hTERT mRNA level at 5 ug/ml incubated for 48 hrs by RT-PCR method relative to control. It is filed as functional. Also noted: scale not given: the % may be the effect or the level left.
`COc1cc2c(c(OC)c1OC)-c1ccc(OC)c(=O)cc1[C@@H](NC(=O)CCCC(=O)OCCCCC[C@@H]1CC=CC(=O)O1)CC2`: the Activity is listed as 67%.

Consider `COc1cc2c(c(OC)c1OC)-c1ccc(OC)c(=O)cc1[C@@H](NC(=O)CCCCCCCCCCC(=O)OCCCCC[C@@H]1CC=CC(=O)O1)CC2`, for which the Activity stood at 19%.

Take `COc1cc2c(c(OC)c1OC)-c1ccc(OC)c(=O)cc1[C@@H](NC(=O)CCCC(=O)OCC[C@H](C[C@H](C)C[C@@H]1CC=CC(=O)O1)OC)CC2`: the Activity came to 125%.

In the case of `COc1cc2c(c(OC)c1OC)-c1ccc(OC)c(=O)cc1[C@@H](NC(=O)CCCCCCCCCCC(=O)OCC[C@H](C[C@H](O)C[C@@H]1CC=CC(=O)O1)OC)CC2`, the Activity came out at 42%.

In the case of `CO[C@H](CCO)C[C@H](O)C[C@@H]1CC=CC(=O)O1`, the Activity is listed as 125%.

Turning to `COc1cc2c(c(OC)c1OC)-c1ccc(OC)c(=O)cc1[C@@H](NC(C)=O)CC2` [COLCHICINE], the Activity came out at 20%.

With `C/C=C/C[C@H](C)[C@@H](OC)[C@@H](C)[C@H](O)C[C@H]1OC(=O)C=C[C@H]1CC` [PIRONETIN], the Activity came to 119%.

The test system of another test is HT-29. Put plainly: Inhibition of Myc mRNA expression in human HT-29 cells assessed as Myc mRNA level at 10 uM incubated for 48 hrs by RT-PCR method relative to control. It is filed as functional. Also noted: scale not given: the % may be the effect or the level left.
As to `COc1cc2c(c(OC)c1OC)-c1ccc(OC)c(=O)cc1[C@@H](NC(=O)CCCCCCCCCCC(=O)OCCCCC[C@@H]1CC=CC(=O)O1)CC2`, the Activity was 13%.

Regarding `COc1cc2c(c(OC)c1OC)-c1ccc(OC)c(=O)cc1[C@@H](NC(=O)CCCCCCCCCCC(=O)OCC[C@H](C[C@H](O)C[C@@H]1CC=CC(=O)O1)OC)CC2`, the Activity is on record as 32%.

On to `CO[C@H](CCO)C[C@H](O)C[C@@H]1CC=CC(=O)O1`, for which the Activity is listed as 66%.

With `COc1cc2c(c(OC)c1OC)-c1ccc(OC)c(=O)cc1[C@@H](NC(C)=O)CC2` [COLCHICINE], the Activity is listed as 6%.

For another test, the system named is HT-29. Kind of test: Inhibition of VEGF mRNA expression in human HT-29 cells assessed as VEGF mRNA level at 5 ug/ml incubated for 48 hrs by RT-PCR method relative to control. Also noted: scale not given: the % may be the effect or the level left. Type of test: functional.
In the case of `COc1cc2c(c(OC)c1OC)-c1ccc(OC)c(=O)cc1[C@@H](NC(=O)CCCC(=O)OCCCCC[C@@H]1CC=CC(=O)O1)CC2`, the Activity is 6%.

Take `COc1cc2c(c(OC)c1OC)-c1ccc(OC)c(=O)cc1[C@@H](NC(=O)CCCCCCCCCCC(=O)OCCCCC[C@@H]1CC=CC(=O)O1)CC2`: the Activity was 3%.

With `COc1cc2c(c(OC)c1OC)-c1ccc(OC)c(=O)cc1[C@@H](NC(=O)CCCC(=O)OCC[C@H](C[C@H](C)C[C@@H]1CC=CC(=O)O1)OC)CC2`, the Activity is 70%.

As for `COc1cc2c(c(OC)c1OC)-c1ccc(OC)c(=O)cc1[C@@H](NC(=O)CCCCCCCCCCC(=O)OCC[C@H](C[C@H](O)C[C@@H]1CC=CC(=O)O1)OC)CC2`, the Activity is given as 7%.

Consider `CO[C@H](CCO)C[C@H](O)C[C@@H]1CC=CC(=O)O1`, for which the Activity is 44%.

For the compound `COc1cc2c(c(OC)c1OC)-c1ccc(OC)c(=O)cc1[C@@H](NC(C)=O)CC2` [COLCHICINE], the Activity is 4%.

`C/C=C/C[C@H](C)[C@@H](OC)[C@@H](C)[C@H](O)C[C@H]1OC(=O)C=C[C@H]1CC` [PIRONETIN]: the Activity is recorded as 48%.

The next test relates to HT-29. Put plainly: Inhibition of Myc mRNA expression in human HT-29 cells assessed as Myc mRNA level at 50 nM incubated for 48 hrs by RT-PCR method relative to control. Type of test: functional. Set-up: scale not given: the % may be the effect or the level left.
Regarding `COc1cc2c(c(OC)c1OC)-c1ccc(OC)c(=O)cc1[C@@H](NC(=O)CCCCCCCCCCC(=O)OCCCCC[C@@H]1CC=CC(=O)O1)CC2`, the Activity came out at 60%.

In the case of `COc1cc2c(c(OC)c1OC)-c1ccc(OC)c(=O)cc1[C@@H](NC(=O)CCCCCCCCCCC(=O)OCC[C@H](C[C@H](O)C[C@@H]1CC=CC(=O)O1)OC)CC2`, the Activity is 94%.

On to `CO[C@H](CCO)C[C@H](O)C[C@@H]1CC=CC(=O)O1`, for which the Activity is more than 100%.

In the case of `COc1cc2c(c(OC)c1OC)-c1ccc(OC)c(=O)cc1[C@@H](NC(C)=O)CC2` [COLCHICINE], the Activity is listed as 19%.

Another test concerns HT-29. Kind of test: Inhibition of VEGF mRNA expression in human HT-29 cells assessed as VEGF mRNA level at 10 uM incubated for 48 hrs by RT-PCR method relative to control. It is filed as functional. Set-up: scale not given: the % may be the effect or the level left.
Turning to `COc1cc2c(c(OC)c1OC)-c1ccc(OC)c(=O)cc1[C@@H](NC(=O)CCCCCCCCCCC(=O)OCCCCC[C@@H]1CC=CC(=O)O1)CC2`, the Activity is given as 8%.

In the case of `COc1cc2c(c(OC)c1OC)-c1ccc(OC)c(=O)cc1[C@@H](NC(=O)CCCCCCCCCCC(=O)OCC[C@H](C[C@H](O)C[C@@H]1CC=CC(=O)O1)OC)CC2`, the Activity is 9%.

Consider `CO[C@H](CCO)C[C@H](O)C[C@@H]1CC=CC(=O)O1`, for which the Activity worked out at 40%.

Consider `COc1cc2c(c(OC)c1OC)-c1ccc(OC)c(=O)cc1[C@@H](NC(C)=O)CC2` [COLCHICINE], for which the Activity was determined as 5%.

For the next test, the system named is HT-29. Put plainly: Inhibition of hTERT mRNA expression in human HT-29 cells assessed as hTERT mRNA level at 50 nM incubated for 48 hrs by RT-PCR method relative to control. Type of test: functional. Set-up: scale not given: the % may be the effect or the level left.
Take `COc1cc2c(c(OC)c1OC)-c1ccc(OC)c(=O)cc1[C@@H](NC(=O)CCCCCCCCCCC(=O)OCCCCC[C@@H]1CC=CC(=O)O1)CC2`: the Activity came to 75%.

For `COc1cc2c(c(OC)c1OC)-c1ccc(OC)c(=O)cc1[C@@H](NC(=O)CCCCCCCCCCC(=O)OCC[C@H](C[C@H](O)C[C@@H]1CC=CC(=O)O1)OC)CC2`, the Activity came out at 81%.

`CO[C@H](CCO)C[C@H](O)C[C@@H]1CC=CC(=O)O1`: the Activity is more than 100%.

Turning to `COc1cc2c(c(OC)c1OC)-c1ccc(OC)c(=O)cc1[C@@H](NC(C)=O)CC2` [COLCHICINE], the Activity was 43%.

Another test has as its system HT-29. Put plainly: Inhibition of VEGF production in human HT-29 cells assessed as VEGF level at 5 ug/ml incubated for 72 hrs by ELISA method relative to control. Type of test: functional. Also noted: scale not given: the % may be the effect or the level left.
As for `COc1cc2c(c(OC)c1OC)-c1ccc(OC)c(=O)cc1[C@@H](NC(=O)CCCC(=O)OCCCCC[C@@H]1CC=CC(=O)O1)CC2`, the Activity was 45%.

On to `COc1cc2c(c(OC)c1OC)-c1ccc(OC)c(=O)cc1[C@@H](NC(=O)CCCCCCCCCCC(=O)OCCCCC[C@@H]1CC=CC(=O)O1)CC2`, for which the Activity was 64%.

In the case of `COc1cc2c(c(OC)c1OC)-c1ccc(OC)c(=O)cc1[C@@H](NC(=O)CCCC(=O)OCC[C@H](C[C@H](C)C[C@@H]1CC=CC(=O)O1)OC)CC2`, the Activity is 44%.

In the case of `COc1cc2c(c(OC)c1OC)-c1ccc(OC)c(=O)cc1[C@@H](NC(=O)CCCCCCCCCCC(=O)OCC[C@H](C[C@H](O)C[C@@H]1CC=CC(=O)O1)OC)CC2`, the Activity was determined as 44%.

As to `CO[C@H](CCO)C[C@H](O)C[C@@H]1CC=CC(=O)O1`, the Activity is 93%.

Regarding `COc1cc2c(c(OC)c1OC)-c1ccc(OC)c(=O)cc1[C@@H](NC(C)=O)CC2` [COLCHICINE], the Activity was 40%.

For the compound `C/C=C/C[C@H](C)[C@@H](OC)[C@@H](C)[C@H](O)C[C@H]1OC(=O)C=C[C@H]1CC` [PIRONETIN], the Activity turned out to be 50%.

The next test relates to HT-29. Put plainly: Inhibition of hTERT mRNA expression in human HT-29 cells assessed as hTERT mRNA level at 10 uM incubated for 48 hrs by RT-PCR method relative to control. Also noted: scale not given: the % may be the effect or the level left. It is filed as functional.
Turning to `COc1cc2c(c(OC)c1OC)-c1ccc(OC)c(=O)cc1[C@@H](NC(=O)CCCCCCCCCCC(=O)OCCCCC[C@@H]1CC=CC(=O)O1)CC2`, the Activity is listed as 27%.

Consider `COc1cc2c(c(OC)c1OC)-c1ccc(OC)c(=O)cc1[C@@H](NC(=O)CCCCCCCCCCC(=O)OCC[C@H](C[C@H](O)C[C@@H]1CC=CC(=O)O1)OC)CC2`, for which the Activity was found to be 55%.

In the case of `CO[C@H](CCO)C[C@H](O)C[C@@H]1CC=CC(=O)O1`, the Activity was more than 100%.

For `COc1cc2c(c(OC)c1OC)-c1ccc(OC)c(=O)cc1[C@@H](NC(C)=O)CC2` [COLCHICINE], the Activity turned out to be 30%.

(Values after ChEMBL document CHEMBL3600325, “Inhibitory effect of pironetin analogue/colchicine hybrids on the expression of the VEGF, hTERT and c-Myc genes” (2015).)
